Legend:
mice [1] = experiment: Activity on the spontaneous motility in mice (inhibition, photoelectric barriers, Friebel, Sommer and Varadan); type: in vivo, SPF-NMRI-mice, female; conditions: Mus musculus, po, read-out: ED50 (50% inhibition of spontaneous motility)
Procedure: 1. Activity on the spontaneous motility in mice:
The inhibition of spontaneous motility was determined with the aid of photoelectric barriers using an adaption of the method of Friebel, Sommer and Varadan (Arzneimittelforschung 9, 126 (1959)). SPF-NMRI-mice from our own breeding colony, having a body weight between 20 and 26 gm, were used. The number of interruptions in the flow of light was measured by ten photoelectric cells uniformly distributed in the bottom of a cylindrical cage, 25 cm in diameter, using a counting device. Thus, the spontaneous motility was registered as the animals moved over the bottom of the cage. 5 female mice were placed in each cage and their activity after application of the substance was measured for different periods of time relative to control mice. The present decrease in motility observed after application of various dosages relative to sham treated control animals was determined by graphical extrapolation, so that the dosage necessary for a 50% inhibition of spontaneous motility (ED50) could be obtained: […]

mice [2] = experiment: Muscle relaxing and sedative activity in mice (slowly rotating wire cylinders, Young and Lewis); type: in vivo, NMRI-mice, female; conditions: Mus musculus, po, read-out: ED50 (50% of the animals fall out of rotating cylinder)
Procedure: 2. Muscle relaxing and sedative activity in mice:
The muscle relaxing and sedative activity was tested according to the method of Young and Lewis (Science 105, 368 (1947)) with female NMRI-mice of a specific breed having a body weight of from 20 to 26 gm. The test apparatus comprises slowly turning wire cylinders, sloped for 30° against the vertical line (length: 43 cm; diameter: 22 cm; mesh-size of the wire netting: 0.6 cm). After peroral administration of a suspension of the substance under test in 1% tylose suspension to groups of 10 mice/dose, their bearing in the slowly rotating cylinders (2 rotations/minute) was observed and was compared with a control group. The dose (ED50) which caused 50% of the animals to fall out after certain test times was determined graphically: […]

[3] = Acute Toxicity (oral, Litchfield and Wilcoxon); type: in vivo; conditions: mouse, in vivo, po; mice; death within 14 days after application
Procedure: (§1) The acute toxicity was determined after oral administration to groups of 10 mice (sex ratio 1:1) from our own breeding colony.

mice [4] = experiment: Acute Toxicity (oral, Litchfield and Wilcoxon); type: in vivo; conditions: p.o., within 14 days, printed beside LD50 >3200 mgm/kg
Procedure: as §1

Structure (SMILES)	ED50 (mice [1]; after 30-45 minutes) [mg/kg]	ED50 (mice [1]; after 90-105 minutes) [mg/kg]	ED50 (mice [1]; after 150-165 minutes) [mg/kg]	ED50 (mice [2]; after 30-60 minutes) [mg/kg]	ED50 (mice [2]; after 90-120 minutes) [mg/kg]	ED50 (mice [2]; after 210-240 minutes) [mg/kg]	ED50 (mice [2]; after 270-300 minutes) [mg/kg]	LD50 at 336 h [3] [mg/kg]	animals died (mice [4])
CC1(C)[C@H](N2CCN(c3ccccn3)CC2)C(C)(C)[C@@]1(O)c1cccc(Cl)c1 [R]	> 25	12	13	46	8	8	11	–	–
CC(C)(C)c1ccc([C@]2(O)C(C)(C)[C@@H](N3CCN(c4ccccc4)CC3)C2(C)C)cc1 [K]	15	3	2	48	8	6	1	–	–
CCC(C)c1ccc([C@]2(O)C(C)(C)[C@@H](N3CCN(c4ccccn4)CC3)C2(C)C)cc1 (stereo partly shown) [L]	7	1	1	5	4	2	1	162	–
CCCCc1ccc([C@]2(O)C(C)(C)[C@@H](N3CCN(c4ccccn4)CC3)C2(C)C)cc1 [P]	9	3	2	15	4	3	6	–	–
CC(C)Cc1ccc([C@]2(O)C(C)(C)[C@@H](N3CCN(c4ccccc4)CC3)C2(C)C)cc1 [N]	8	2	1	65	3	2	3	–	–
CC1(C)[C@H](N2CCN(c3ccccn3)CC2)C(C)(C)[C@@]1(O)c1ccc(O)cc1 [A]	7.5	11	6	5.5	7.5	8.5	7.5	338	–
CC(C)c1ccc([C@]2(O)C(C)(C)[C@@H](N3CCN(c4ccccn4)CC3)C2(C)C)cc1 [G]	7	3	5	11	8	3	8	118	–
CC1(C)[C@H](N2CCN(c3ccccn3)CC2)C(C)(C)[C@@]1(O)c1ccc(Cl)cc1 [H]	> 13	31	> 13	13	22	19	15	442	–
CC(C)(C)c1ccc([C@]2(O)C(C)(C)[C@@H](N3CCN(c4ccccn4)CC3)C2(C)C)cc1 [I]	16	3	3	16	10	17	14	–	–
CC1(C)[C@H](N2CCN(c3ccccc3)CC2)C(C)(C)[C@@]1(O)c1ccc(O)cc1 [B]	> 50	3	4	26	11	6	5.5	1340	–
CC1(C)[C@H](N2CCN(c3ccc(O)cc3)CC2)C(C)(C)[C@@]1(O)c1ccc(O)cc1 [E]	5	5	< 2.5	10	13	9	3	> 3200	0 out of 10
CC(C)c1ccc([C@]2(O)C(C)(C)[C@@H](N3CCN(c4ccccc4)CC3)C2(C)C)cc1 [F]	95	5	2	29	4	2	3	> 800	–
COc1ccc([C@]2(O)C(C)(C)[C@@H](N3CCN(c4ccccc4)CC3)C2(C)C)cc1OC [D]	26	22	3	> 40	32	16	14	2900	–
CCCCc1ccc([C@]2(O)C(C)(C)[C@@H](N3CCN(c4ccccc4)CC3)C2(C)C)cc1 [Q]	34	> 3	4	> 200	22	8	8	–	–
CCC(C)c1ccc([C@]2(O)C(C)(C)[C@@H](N3CCN(c4ccccc4)CC3)C2(C)C)cc1 (stereo partly shown) [O]	9	3	2	1	1	2	1	800	–
COc1ccc(N2CCN([C@H]3C(C)(C)[C@](O)(c4ccc(O)cc4)C3(C)C)CC2)cc1 [C]	11	7.5	6	20	16	34	15.5	> 6400	–
CC(C)Cc1ccc([C@]2(O)C(C)(C)[C@@H](N3CCN(c4ccccn4)CC3)C2(C)C)cc1 [M]	9	> 3	0.4	4	4	3	2	–	–

— patent US3992536A, “Pharmaceutical compositions containing a 1-phenyl-2,2,4,4-C1 -C2 alkyl-3-[4-phenyl of pyridyl)-piperazino]-cyclobutanol-(1) and method of use” (Boehringer Ingelheim GmbH, priority 1972, dated 1976)
